Source: ChEMBL document CHEMBL3885861, “Open TG-GATES”

Organism: Rattus norvegicus
Assay: Open TG-GATES - Regimen: Single
Assay type: toxicity, organism-based, Sprague-Dawley
Parameters: regimen Single, gender Male, age 6 weeks
Conditions: in vivo, po, 150 mg/kg, route gavage, dose level High; for APTT / Bas / Eos / Fbg / Hb / Ht / Lym / MCH / MCHC / MCV / Mono / Neu / PT / Plat / RBC / Ret / WBC: tissue Blood; for KIDNEY_L / KIDNEY_R / KIDNEY_TOTAL: tissue Kidney; for LIVER: tissue Liver; for A/G / ALP / ALT / AST / BUN / CRE / Ca / Cl / DBIL / GLC / IP / K / LDH / Na / PL / RALB / TBIL / TC / TG / TP / gamma-GTP: tissue Plasma

Question: What does the source list for `S=C=Nc1cccc2ccccc12` [1-NAPHTHYLISOTHIOCYANATE]?
Answer: TERMINAL_BW (3 h): 222.9 g; APTT (3 h): 17.4 s; Bas (3 h): 0.2%; Eos (3 h): 0.8%; Fbg (3 h): 243 mg/dL; Hb (3 h): 13.9 g/dL; Ht (3 h): 38.6%; Lym (3 h): 77.8%; MCH (3 h): 22.3 pg; MCHC (3 h): 36%; MCV (3 h): 61.8 fL; Mono (3 h): 2.4%; Neu (3 h): 18.2%; PT (3 h): 11.8 s; Plat (3 h): 124.6 x10_4/uL; RBC (3 h): 626.2 x10_4/ul; Ret (3 h): 8.3%; WBC (3 h): 70.9 x10_2/uL; KIDNEY_L (3 h): 0.9 g; KIDNEY_R (3 h): 0.9 g; KIDNEY_TOTAL (3 h): 1.9 g; LIVER (3 h): 9.6 g; A/G (3 h): 1.6; ALP (3 h): 1056 IU/L; ALT (3 h): 43 IU/L; AST (3 h): 69.6 IU/L; BUN (3 h): 9.2 mg/dL; CRE (3 h): 0.4 mg/dL; Ca (3 h): 10.9 mg/dL; Cl (3 h): 103 meq/L; DBIL (3 h): 0.2 mg/dL; GLC (3 h): 314.6 mg/dL; IP (3 h): 11.1 mg/dL; K (3 h): 3.9 meq/L; LDH (3 h): 205.6 IU/L; Na (3 h): 141.4 meq/L; PL (3 h): 142.2 mg/dL; RALB (3 h): 3.5 g/dL; TBIL (3 h): 0.2 mg/dL; TC (3 h): 78.6 mg/dL; TG (3 h): 77.6 mg/dL; TP (3 h): 5.7 g/dL; gamma-GTP (3 h): 1 IU/L; TERMINAL_BW (6 h): 220.5 g; APTT (6 h): 19.3 s; Bas (6 h): 0.4%; Eos (6 h): 0.6%; Fbg (6 h): 247.2 mg/dL; Hb (6 h): 14.3 g/dL; Ht (6 h): 40.2%; Lym (6 h): 80.6%; MCH (6 h): 21.5 pg; MCHC (6 h): 35.6%; MCV (6 h): 60.3 fL; Mono (6 h): 2.4%; Neu (6 h): 15.4%; PT (6 h): 12.1 s; Plat (6 h): 127.2 x10_4/uL; RBC (6 h): 668 x10_4/ul; Ret (6 h): 7.4%; WBC (6 h): 75.2 x10_2/uL; KIDNEY_L (6 h): 0.9 g; KIDNEY_R (6 h): 0.9 g; KIDNEY_TOTAL (6 h): 1.9 g; LIVER (6 h): 9 g; A/G (6 h): 1.5; ALP (6 h): 846.6 IU/L; ALT (6 h): 40.4 IU/L; AST (6 h): 71.4 IU/L; BUN (6 h): 10 mg/dL; CRE (6 h): 0.4 mg/dL; Ca (6 h): 10.7 mg/dL; Cl (6 h): 101.2 meq/L; DBIL (6 h): 0.3 mg/dL; GLC (6 h): 371.2 mg/dL; IP (6 h): 10.4 mg/dL; K (6 h): 4.4 meq/L; LDH (6 h): 188.4 IU/L; Na (6 h): 141 meq/L; PL (6 h): 149.2 mg/dL; RALB (6 h): 3.6 g/dL; TBIL (6 h): 0.2 mg/dL; TC (6 h): 85 mg/dL; TG (6 h): 55.4 mg/dL; TP (6 h): 5.9 g/dL; gamma-GTP (6 h): 1.2 IU/L; TERMINAL_BW (9 h): 219.4 g; APTT (9 h): 19.1 s; Bas (9 h): 0.4%; Eos (9 h): 0.6%; Fbg (9 h): 251.8 mg/dL; Hb (9 h): 14.3 g/dL; Ht (9 h): 40.2%; Lym (9 h): 77.6%; MCH (9 h): 21.9 pg; MCHC (9 h): 35.7%; MCV (9 h): 61.4 fL; Mono (9 h): 3%; Neu (9 h): 18.4%; PT (9 h): 12.1 s; Plat (9 h): 126.7 x10_4/uL; RBC (9 h): 655.2 x10_4/ul; Ret (9 h): 7.1%; WBC (9 h): 81.9 x10_2/uL; KIDNEY_L (9 h): 1 g; KIDNEY_R (9 h): 0.9 g; KIDNEY_TOTAL (9 h): 1.9 g; LIVER (9 h): 8.7 g; A/G (9 h): 1.5; ALP (9 h): 968.6 IU/L; ALT (9 h): 40 IU/L; AST (9 h): 63.8 IU/L; BUN (9 h): 10.2 mg/dL; CRE (9 h): 0.4 mg/dL; Ca (9 h): 10.8 mg/dL; Cl (9 h): 101.8 meq/L; DBIL (9 h): 0.3 mg/dL; GLC (9 h): 352.4 mg/dL; IP (9 h): 10.4 mg/dL; K (9 h): 4.5 meq/L; LDH (9 h): 186.8 IU/L; Na (9 h): 140.8 meq/L; PL (9 h): 151.4 mg/dL; RALB (9 h): 3.6 g/dL; TBIL (9 h): 0.2 mg/dL; TC (9 h): 83.4 mg/dL; TG (9 h): 35.6 mg/dL; TP (9 h): 5.9 g/dL; gamma-GTP (9 h): 1 IU/L; TERMINAL_BW (24 h): 214.2 g; APTT (24 h): 21.2 s; Bas (24 h): 0.6%; Eos (24 h): 0.2%; Fbg (24 h): 392.4 mg/dL; Hb (24 h): 14.7 g/dL; Ht (24 h): 38.5%; Lym (24 h): 43%; MCH (24 h): 21.6 pg; MCHC (24 h): 38.2%; MCV (24 h): 56.4 fL; Mono (24 h): 5.6%; Neu (24 h): 49.6%; PT (24 h): 12.8 s; Plat (24 h): 145.8 x10_4/uL; RBC (24 h): 682.8 x10_4/ul; Ret (24 h): 6%; WBC (24 h): 79 x10_2/uL; KIDNEY_L (24 h): 0.9 g; KIDNEY_R (24 h): 0.9 g; KIDNEY_TOTAL (24 h): 1.9 g; LIVER (24 h): 8.6 g; A/G (24 h): 1.3; ALP (24 h): 1505.2 IU/L; ALT (24 h): 131.6 IU/L; AST (24 h): 349.2 IU/L; BUN (24 h): 11.2 mg/dL; CRE (24 h): 0.5 mg/dL; Ca (24 h): 10.4 mg/dL; Cl (24 h): 96.8 meq/L; DBIL (24 h): 1.5 mg/dL; GLC (24 h): 190.8 mg/dL; IP (24 h): 9.2 mg/dL; K (24 h): 3.8 meq/L; LDH (24 h): 601.8 IU/L; Na (24 h): 142.2 meq/L; PL (24 h): 268 mg/dL; RALB (24 h): 3.3 g/dL; TBIL (24 h): 1.7 mg/dL; TC (24 h): 129.6 mg/dL; TG (24 h): 64.2 mg/dL; TP (24 h): 5.8 g/dL; gamma-GTP (24 h): 7.4 IU/L
